The test system of experiment [1] is B16 (mice melanoma cells). Conditions: metformin 5 mM alone or in combination.
Description: Each of the cell samples were then tested in a flow cytometer. The testing methodology and equipment used are set forth as follows. Cells were harvested and washed twice with phosphate buffered saline, (PBS) and fixed in 70% cold ethanol at 4° C. overnight. Before analysis, cells were washed twice with PBS, containing 1% bovine serum albumin (BSA), then resuspended with 400 μl PBS and treated with 100 μg/ml RNase A (Roche Diagnostics) and 50 μg/ml propidium iodide (PI) (Sigma). After incubation for 30 min at 37° C., the cells were subjected to DNA content analysis. propidium iodide, (PI) fluorescence was analyzed with a FACS calibur flowcytometer, (Becton Dickinson). Data from at least 10,000 cells were analyzed with software.
In Example 5, Metformin 5 mM; Metformin 5 mM+aspirin 2 mM; and Metformin 5 mM+aspirin 2 mM+serotonin creatinine sulfate complex 0.001 mM were tested to determine the effect on cell cycle on B16 (mice melanoma cells) during the G1, S and G2 cell phases. The procedure for testing using the flow cytometer was carried out as set forth in Example 1 above.
Experiment [2] concerns transplanted human hepatoma (Hep G2 cells). The experiment is described as follows: Volume of transplanted human hepatoma (Hep G2) in hairless mice. The class given is in vivo. Here is the method:
The procedures for performing this test were as follows. Hep G2 cells were prepared at 25*10^6 cells/ml and 0.2 ml of the cell suspension (5*10^6 cells) was injected in an exposed mouse mammary fat pad. When tumors achieved the required size (0.5 cm^3), animals would be treated with 50 μl of B10, dehydrated alcohol or 10% glucose solution once daily for 6 days. During 12 days after the last injection, tumor volume will be assessed by measuring tumor dimensions (long (L) and short (S)) and estimated it as V=0.52*L*S^2. 12 days after the last injection, mice would be sacrificed and tumors would be dissected, weighed and stored in a formaline solution for further evaluation.).

Molecules are shown by their SMILES. Marks after values point to notes of the source that are not given here.

With `CN(C)C(=N)N=C(N)N` [Metformin], the S in experiment [1] (control 12.8) was found to be 4.6. Moreover, the G2 in experiment [1] (control 23.1) came to 23.6. In addition, the G1 in experiment [1] (control 64) is 71.8.
`CCO` [Dehydration ethanol]: the “rate of elimination of hepatoma volume” value in experiment [2] was 52.7%. In addition, the “Volume After Treatment” value in experiment [2] (Hep G2 tumor, 50 μl once daily for 6 days, 10% G.S. 444 ± 199) is 89 ± 120**. Moreover, in experiment [2] (Hep G2 tumor, before treatment), the “Volume Before Treatment” value was 188 ± 119. Moreover, the “Volume Changes” value in experiment [2] (Hep G2 tumor, ↓ = decrease, 10% G.S. ↑158%) is on record as “↓52.7%”.
